Reference: patent US9096687B2, “Inhibition of inflammation using antagonists of MUC1” (DANA-FARBER CANCER INSTITUTE, INC., priority 2009, dated 2015)
Square brackets hold non-standard residues; d marks the D form. Ends that are not written are not given here.

Key:
[1] = molecular target: T1, MUC1-CD oligomerization (Homo sapiens, UniProt P15941); assay: Oligomerization of MUC1-CD in vitro; assay type: biochemical
T1 construct: contains a 72-amino acid cytoplasmic domain (MUC1-CD)
T1 sequence (P15941 1184-1255): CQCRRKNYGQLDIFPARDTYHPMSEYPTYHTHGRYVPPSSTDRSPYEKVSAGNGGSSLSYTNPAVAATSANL
Excerpt: (§1) Previous Studies. Overexpression of MUC1 is sufficient for the induction of anchorage-independent growth and tumorigenicity (Li et al., 2003a; Huang et al., 2003; Huang et al., 2005). […] MUC1 forms oligomers and the CQC motif is necessary for this oligomerization (Leng et al., 2007). Moreover, oligomer formation is necessary for targeting of the MUC1-C subunit to the nucleus (Leng et al., 2007). The inventors synthesized a MUC1-derived peptide that contains the CQC motif and a poly-Arg cell delivery domain for entry into cells.

[2] = molecular target: T2, interaction between MUC1-CD and STAT3 (Homo sapiens, UniProt P15941); assay: In vitro binding of GST-STAT3 to purified MUC1-CD; details: 1 h at room temperature
T2 construct: a GST fusion protein containing the 72 amino acid MUC1-CD; GST (cleaved yes); made in house
T2 sequence (P15941 1184-1255): T1 sequence (P15941 1184-1255)

[3] = tested on: carcinoma cells overexpressing MUC1; assay: Growth arrest and necrosis of cells exposed to peptide; assay type: cell-based; details: for growth arrest and induction of necrosis: exposure of cells
Excerpt: as §1

[4] = molecular target: T3, IL-6-induced interaction between MUC1-C and STAT3 (Homo sapiens, UniProt P15941); assay: Anti-STAT3 co-immunoprecipitation from IL-6-stimulated MCF-10A cells; assay type: cell-based; design: dose or concentration left out as unconfirmed; details: peptide added each 24 h for 72 h
T3 construct: C-terminal subunit (MUC1 C-ter, MUC1-C), which includes a 58 amino acid extracellular region; endogenous in cells; host or cells: MCF-10A
T3 sequence (P15941 1098-1255 limits assumed): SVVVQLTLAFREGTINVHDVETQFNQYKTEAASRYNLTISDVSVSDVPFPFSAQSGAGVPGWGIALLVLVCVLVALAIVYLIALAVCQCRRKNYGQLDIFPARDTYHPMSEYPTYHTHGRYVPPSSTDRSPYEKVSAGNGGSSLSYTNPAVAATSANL

[5] = molecular target: T4, interaction between MUC1-CD and NF-κB p65 (Homo sapiens, UniProt P15941); assay: In vitro binding of GST-MUC1-CD to purified NF-κB p65 (glutathione bead adsorbates, anti-p65 immunoblot); details: 1 h at room temperature
T4 construct: a GST fusion protein containing the 72 amino acid MUC1-CD; made in house
T4 sequence (P15941 1184-1255): T1 sequence (P15941 1184-1255)
Experimental: In Vitro Binding Assays. GST, GST-MUC1-CD, GST-MUC1-CD(1-45) and GST-MUC1-CD(46-72) were prepared as described (Ahmad et al., 2007) and incubated with p65 and certain p65 deletion mutants. Purified GST-MUC1-CD was cleaved with thrombin to remove the GST moiety. GST-IκBα (Millipore, Billerica, Mass.) was incubated with p65(186-306) for 2 h at 25° C. in the absence and presence of purified MUC1-CD. Adsorbates to glutathione-conjugated beads were analyzed by immunoblotting.

[6] = tested on: ZR-75-1 breast carcinoma cells; assay: Proliferation of ZR-75-1 breast carcinoma cells (trypan blue exclusion); assay type: cell-based, Human; details: 5 μM every day for 4 days
Experimental: FIG. 17: Effect of different MUC1-CD CQC-region peptides on the growth of hormone-dependent breast carcinoma cells. To determine whether exposure to different MUC1-CD CQC-region containing peptides affect growth, ZR-75-1 breast carcinoma cells were treated with 5 μM of different peptides for 4 days and monitored for cell proliferation.
FIG. 21: Effect of Shorter GO-203 peptides on proliferation of ZR-75-1 Breast Cancer Cells. Human ZR-75-1 breast cancer cells were grown in RPMI1640 supplemented with 10% heat-inactivated fetal bovine serum, 100 units/ml penicillin, 100 μg/ml streptomycin. Cells were treated with different peptides at 5 μM every day for four days and cell viability was determined by trypan blue exclusion.
Multiple tumor cell lines (ZR-75-1 Hormone-dependent Breast Carcinoma; MDA-MB-231 Triple-Negative Breast Carcinoma; A549 Non-small Cell Lung Carcinoma; H-1975 Non-small Cell Lung Carcinoma) were grown in RPMI-1640 supplemented with 10% heat-inactivated fetal bovine serum, 100 units/mL penicillin and 100 μg/mL streptomycin and 2 mmol/L L-glutamine. Cells were treated separately with 5 μM of different analogs of GO-203 (FIG. 15) for 3 to 7 days and viability was determined by trypan blue exclusion. The proliferation of different cell lines was compared with cells treated with vehicle only.

[7] = tested on: H-1975 non-small cell lung carcinoma cell line; details: H-1975 cells, 5 μM, 3 days
Experimental: H-1975 non-small cell lung carcinoma cell line was grown in DMEM with 10% heat-inactivated fetal bovine serum with 100 units/mL penicillin, 100 μg/ml streptomycin and 2 mmol/L L-glutamine. Cells were re-seeded one day before treatments. Cells were treated with 5 μM GO-200-2B for 3 days and cell viability was determined by trypan blue exclusion.
Moreover, another non-small cell lung carcinoma cell line, H-1975, was treated with 5 μM GO-200-2B for 3 days and monitored for cell growth as well as cell death.

[8] = molecular target: T5, TNFα-induced interaction between MUC1-C and NF-κB p65 (Homo sapiens, UniProt P15941); assay: Anti-p65 co-immunoprecipitation from TNFα-stimulated MCF-10A cells; assay type: cell-based; details: 5 μM peptide added each 24 h for 72 h
T5 construct: C-terminal subunit (MUC1 C-ter, MUC1-C), which includes a 58 amino acid extracellular region; endogenous in cells; host or cells: MCF-10A
T5 sequence (P15941 1098-1255 limits assumed): T3 sequence (P15941 1098-1255 limits assumed)
Experimental: Cell Culture. Human ZR-75-1 breast cancer and U-937 leukemia cells were grown in RPMI 1640 medium containing 10% heat-inactivated fetal bovine serum (FBS), 100 units/ml penicillin, 100 μg/ml streptomycin and 2 mM L-glutamine. Human HeLa cervical and MCF-7 breast carcinoma cells were grown in Dulbecco's modified Eagle's medium with 10% FBS, antibiotics and L-glutamine. Human MCF-10A breast epithelial cells were grown in mammary epithelial cell growth medium (MEGM; Lonza, Walkersville, Md.) and treated with 20 ng/ml TNFα (BD Biosciences, San Jose, Calif.). Transfection of the MCF-10A cells with siRNA pools (Dharmacon, Lafayette, Colo.) was performed in the presence of Lipofectamine 2000 (Invitrogen, Carlsbad, Calif.). Cells were treated with 5 μM MUC1/CQC and MUC1/AQA peptides synthesized by the MIT Biopolymer Laboratory (Cambridge, Mass.).
Immunoprecipitation and immunoblotting. Lysates from sub-confluent cells were prepared as described (Ren et al., 2004). Soluble proteins were precipitated with anti-NF-κB p65 (Santa Cruz Biotechnology, Santa Cruz, Calif.). […] Immune complexes were detected with horseradish peroxidase-conjugated secondary antibodies (GE Healthcare Biosciences, Piscataway, N.J.) and enhanced chemiluminescence (GE Healthcare).

[9] = tested on: TNFα-induced MUC1 and Bcl-xL expression; assay: Immunoblot of lysates from TNFα-stimulated MCF-10A cells; assay type: cell-based, Human; details: 5 μM peptide added each 24 h for 72 h
Experimental: Immunoprecipitation and immunoblotting. Lysates from sub-confluent cells were prepared as described (Ren et al., 2004). Soluble proteins were precipitated with anti-NF-κB p65 (Santa Cruz Biotechnology, Santa Cruz, Calif.). The immunoprecipitates and cell lysates were subjected to immunoblotting with anti-p65, anti-p65 (180-306) (Millipore, Billerica, Mass.) anti-MUC1-C (Ab5; Lab Vision, Fremont, Calif.), anti-IκBα (Santa Cruz Biotechnology), anti-Bcl-xL (Santa Cruz Biotechnology) and anti-α-actin (Sigma, St. Louis, Mo.). Immune complexes were detected with horseradish peroxidase-conjugated secondary antibodies (GE Healthcare Biosciences, Piscataway, N.J.) and enhanced chemiluminescence (GE Healthcare).

[10] = tested on: tumor growth; assay: Administration to tumor bearing mice
Excerpt: as §1

[11] = tested on: MUC1-C levels in the nucleus; assay: MUC1-C levels in the nucleus after peptide uptake; assay type: cell-based; details: after uptake of the peptide
Excerpt: as §1

[12] = tested on: pMUC1-Luc reporter; assay: pMUC1-Luc reporter assay in IL-6-stimulated MCF-10A cells; assay type: cell-based, Human
Experimental: Luciferase Assays. Cells were transfected with NFκB-Luc (Ahmad et al., 2007) or pMUC1-Luc (Yin et al., 2003) and SV-40-Renilla-Luc (Promega, Madison, Wis.) in the presence of Lipofectamine. After 48 h, the cells were lysed in passive lysis buffer. Lysates were analyzed for firefly and Renilla luciferase activities using the dual luciferase assay kit (Promega).

[13] = tested on: STAT3 and MUC1-C on the MUC1 promoter; assay: ChIP of MUC1 promoter STAT binding site in IL-6-stimulated MCF-10A cells; assay type: cell-based, Human; details: 5 mM peptide added each 24 h for 72 h
[14] = tested on: MUC1-C and STAT3 occupancy of the MUC1 promoter; assay: Constitutive occupancy of the MUC1 promoter in breast cancer cells; assay type: cell-based
Experimental: (§2) MUC1-C Promotes STAT3-Mediated Transcription. […] In concert with these observations, silencing MUC1 in breast cancer cells was associated with decreases in (i) constitutive STAT3 occupancy on the STAT binding site, and (ii) constitutive activation of the MUC1 promoter. To provide further support for an auto-inductive loop, studies were performed with GO-201, an inhibitor of MUC1-C oligomerization (Raina, 2009). […] Moreover, GO-201 blocked IL-6 induced activation of the MUC1 promoter. […] These findings thus provide support for the potential importance of the MUC1-C-STAT3 interaction in targeting STAT3 to the MUC1 promoter and promoting activation of the MUC1 gene in an auto-inductive loop (FIG. 7D).

[15] = tested on: MUC1-C and NF-κB p65 occupancy of the NF-κB binding motif in the MUC1 promoter; assay: ChIP of MUC1 promoter NF-κB binding motif in TNFα-stimulated MCF-10A cells; details: 5 μM peptide added each 24 h for 72 h
Experimental: MCF-10A cells were left untreated or stimulated with TNFα in the presence of 5 μM MUC1/CQC or MUC1/AQA peptide added each 24 h for 72 h. […] (FIGS. 6B and 6C) MCF-10A cells were left untreated or stimulated with TNFα in the presence of 5 μM MUC1/CQC or MUC1/AQA peptide added each 24 h for 72 h. Soluble chromatin was precipitated with anti-MUC1-C (left) or anti-p65 (right) and then analyzed for MUC1 NF-κB binding motif promoter sequences (FIG. 6B).
ChIP Assays. Soluble chromatin was prepared as described (Wei et al., 2006) and precipitated with anti-p65, anti-MUC1-C or a control non-immune IgG. […] For PCR, 2 μl from a 50 μl DNA extraction was used with 25-35 cycles of amplification.

[16] = tested on: MUC1 promoter; assay: Constitutive activation of the MUC1 promoter in breast cancer cells; assay type: cell-based
Experimental: as §2

[17] = tested on: multiple carcinoma cell lines; assay: Growth and killing of carcinoma cell lines by L-amino acid MUC1 C-terminal peptides; assay type: cell-based
Excerpt: GO-203 analogs. The inventors' recent studies have shown that a MUC1 C-terminal peptide (CQCRRKNYGQLDIFP; SEQ ID NO:3) is active in inhibiting growth of multiple carcinoma cell lines. […] However, these MUC1-C-terminal peptides consists of L-amino acids. […] Consequently, they have generated an all-dextro form of the above described shorter MUC1 C-terminal peptide, in which the L-amino acids were changed to D-amino acids (GO-203). Moreover, to determine the minimum amino acid residues from the MUC1-C-terminal region that are required to retain the cell killing activity, they have also generated many different versions of GO-203 as described in FIG. 15.

[18] = tested on: severe sepsis; details: decreased from about 31%; cited from earlier work
[19] = tumor bearing mice, 10 and 30 mg/kg/d for 21 d

MUC1/AQA: control peptide in which the CQC motif was mutated to AQA (SEQ ID NO:62), with poly D-arginine transduction domain (AQARRKNYGQLDIFP; also: poly D-arginine transduction domain, not placed) [reference compound]
oligomerization of MUC1-CD in vitro [1]: did not
interaction between MUC1-CD and STAT3 in vitro [2]: not
growth arrest and induction of necrosis [3]: not
IL-6-induced interaction between MUC1-C and STAT3 [4]: not
interaction between MUC1-CD and NF-κB p65 in vitro [5]: little if any effect

GO-208: shorter GO-203 peptide, SEQ ID NO:50 (CQCRR)
growth of ZR-75-1 breast carcinoma cells [6]: significant inhibition of growth

CC(=O)N[C@@H](C)C(=O)N[C@@H](CCCCN)C(=O)N[C@@H](CCCCN)C(=O)N[C@@H](Cc1ccc(O)cc1)C(=O)N[C@@H](CC(C)C)C(=O)N[C@@]1(C)CCCC=CCCCC2(CCCC=CCCC[C@@](C)(C(=O)N[C@@H](CCCNC(=N)N)C(=O)N[C@@H](CCCCN)C(=O)N[C@@H](CC(N)=O)C(=O)N[C@@H](Cc3ccc(O)cc3)C(N)=O)NC(=O)[C@H](CS)NC(=O)[C@H](CCC(N)=O)NC(=O)[C@H](CS)NC2=O)NC(=O)[C@H](C)NC(=O)[C@H](CC(C)C)NC(=O)[C@H](C)NC1=O (stereo partly shown) [GO-200-2B]
induction of cell death [7]: significant induction of cell death

MUC1/CQC: peptide corresponding to MUC1-CD(1-15) (SEQ ID NO:3, CQCRRKNYGQLDIFP) with poly D-arginine transduction domain; inhibitor of MUC1-C oligomerization (cysteine pairing not given here; also: poly D-arginine transduction domain, not placed)
TNFα-induced interaction between MUC1-C and NF-κB p65 [8]: blocked
TNFα-induced Bcl-xL expression [9]: attenuated
TNFα-induced MUC1 expression [9]: decreased
tumor growth following treatment ([10]; 50 mg/kg/d for 7 d): tumor growth remains arrested for extended periods
tolerability [10, 19]: well-tolerated without apparent acute toxicities
tumor growth [10, 19]: effective in abrogating tumor growth
MUC1-C levels in the nucleus [11]: down-regulation
oligomerization of MUC1-CD in vitro [1]: inhibits
IL-6-induced activation of the pMUC1-Luc reporter [12]: attenuated
IL-6-induced targeting of STAT3 and MUC1-C to the MUC1 promoter [13]: inhibited
constitutive occupancy of the MUC1 promoter by MUC1-C and STAT3 [14]: inhibits
TNFα-induced MUC1-C and NF-κB p65 occupancy of the NF-κB binding motif [15]: decreased
interaction between MUC1-CD and STAT3 in vitro [2]: blocked
constitutive activation of the MUC1 promoter [16]: inhibits
selectivity of dominant-negative activity [3]: selective for carcinoma cells overexpressing MUC1
growth arrest and induction of necrosis [3]: growth arrest and the induction of necrosis
IL-6-induced interaction between MUC1-C and STAT3 [4]: blocked
interaction between MUC1-CD and NF-κB p65 in vitro [5]: blocked the interaction

CQCRRKNYGQLDIFP
inhibiting growth of multiple carcinoma cell lines [17]: active

GO-207: shorter GO-203 peptide, SEQ ID NO:4 (CQCRRK)
growth of ZR-75-1 breast carcinoma cells [6]: significant inhibition of growth

GO-209: shorter GO-203 peptide, SEQ ID NO:54 (CQCR)
growth of ZR-75-1 breast carcinoma cells [6]: significant inhibition of growth

drotrecogin alfa
mortality [18]: about 25%

GO-203: all-dextro form of the shorter MUC1 C-terminal peptide CQCRRKN (SEQ ID NO:53), L-amino acids changed to D-amino acids ([dC][dQ][dC][dR][dR][dK][dN]; cysteine pairing not given here)
growth of ZR-75-1 breast carcinoma cells [6]: significant inhibition of growth

CQCRRKN [shorter MUC1-C-terminal peptide consisting of L-amino acids]
killing tumor cells [17]: active
